# Test results taken from PMC11354698, “Functional Characterization of an Odorant Receptor Expressed in Newly Hatched Larvae of Fall Armyworm Spodoptera frugiperda” (Insects, 2024).
# Biological target: T1, SfruOR40/Orco (SfruOR40 co-expressed with SfruOrco) (Spodoptera frugiperda, UniProt A0A9R0D2T2)
# T1 construct: gene LOC118267896; full-length ORF of SfruOR40 (395 residues); with Odorant receptor coreceptor
# T1 sequence (A0A9R0D2T2 1-395): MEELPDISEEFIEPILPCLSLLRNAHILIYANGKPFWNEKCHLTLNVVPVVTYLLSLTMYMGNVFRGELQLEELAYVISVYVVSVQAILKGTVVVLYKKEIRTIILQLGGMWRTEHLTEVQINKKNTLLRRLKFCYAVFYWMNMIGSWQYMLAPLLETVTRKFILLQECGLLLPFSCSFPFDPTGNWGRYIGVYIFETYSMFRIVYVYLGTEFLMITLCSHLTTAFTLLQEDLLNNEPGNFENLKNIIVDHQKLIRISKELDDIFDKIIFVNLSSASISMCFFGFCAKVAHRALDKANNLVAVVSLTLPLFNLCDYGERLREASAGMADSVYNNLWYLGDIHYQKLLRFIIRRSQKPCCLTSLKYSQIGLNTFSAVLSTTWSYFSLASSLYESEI
# T1 sequence (A0A9F1UC78 1-473 partner): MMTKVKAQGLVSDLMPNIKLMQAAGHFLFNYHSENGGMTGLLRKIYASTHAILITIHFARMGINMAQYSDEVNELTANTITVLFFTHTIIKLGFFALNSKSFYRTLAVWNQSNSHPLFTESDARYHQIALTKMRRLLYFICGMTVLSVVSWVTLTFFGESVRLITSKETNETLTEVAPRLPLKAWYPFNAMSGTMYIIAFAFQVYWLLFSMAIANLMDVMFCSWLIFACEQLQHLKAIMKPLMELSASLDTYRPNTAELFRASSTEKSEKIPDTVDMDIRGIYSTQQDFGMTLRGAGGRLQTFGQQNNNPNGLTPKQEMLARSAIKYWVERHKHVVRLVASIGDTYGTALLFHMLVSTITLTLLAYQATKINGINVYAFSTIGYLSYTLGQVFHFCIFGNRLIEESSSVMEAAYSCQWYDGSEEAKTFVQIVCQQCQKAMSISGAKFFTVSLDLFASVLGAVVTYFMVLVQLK
# Assay: two-electrode voltage clamp, Xenopus oocytes
# Type: cell-based
# Settings: agonist, 10^-4 M odorant, -80 mV, Ringer's buffer pH 7.6, 0.1% DMSO, n = 7
row,SMILES,mean current amplitude at 10^-4 M [nA]
1,C=C1CC/C=C(\C)CC[C@@H]2[C@@H]1CC2(C)C [(−)-trans-Caryophyllene],111
2,C=C1CC[C@H]2O[C@]2(C)CC[C@@H]2[C@@H]1CC2(C)C [(−)-trans-Caryophyllene oxide],90
3,C/C1=C\CC/C(C)=C/CC(C)(C)/C=C/C1 [α-Humulene],206
